Values of other authors as cited in patent US20170239312A1, “WEIGHT MANAGEMENT SYSTEMS AND RELATED METHODS” (priority 2013, published 2017).

Experiments:
[1] = 50-200 mg/day
[2] = caffeine alone
[3] = mice, high fat diet, 10 weeks
[4] = obese rats, 10 mg/kg-body weight
3T3-L1 pre-adipocytes = details: dose- and time-dependent
[5] = fed capsaicin versus saline (control group)

CCNC(=O)CC[C@H](N)C(=O)O [theanine]
Time to sense of relaxation [1]: 30 to 40 min

Cn1c(=O)c2c(ncn2C)n(C)c1=O [Caffeine]
Effect on thermogenesis or fat oxidation [2]: no effect

fucoxanthin
Body weight and adipose tissue [3]: significant decrease in body weight and adipose tissue

O=c1c(O)c(-c2ccc(O)c(O)c2)oc2cc(O)cc(O)c12 [quercetin]
Body weight gain [4]: reduced body weight gain | Apoptosis (cell suicide) (3T3-L1 pre-adipocytes): induced apoptosis

COc1cc(CNC(=O)CCCC/C=C/C(C)C)ccc1O [capsaicin]
Decrease in body weight [5]: 8%
